Source: PMC6660996 (Bioorganic & medicinal chemistry, 2019)
Like-named read-outs stand apart in the source and are kept apart here.

What was measured:
T. gondii (tachyzoites) [1] = conditions: cited from earlier work; for T. gondii growth ED50: tachyzoites, already published data, ref 47-55 (see b12)
[2] = tested on: hypervirulent RH strain of T. gondii; conditions: cited from earlier work
T. cruzi (amastigotes) = assay: T. cruzi amastigote assays; type: cell-based; conditions: Trypanosoma cruzi
T. gondii (tachyzoites) [3] = assay: T. gondii tachyzoites assays; type: cell-based; conditions: Toxoplasma gondii, read-out: T. gondii cells ED50, tachyzoites; Table 3
[4] = read-out: T. cruzi cells ED50, amastigotes, Table 3

| SMILES | T. gondii growth ED50 (T. gondii (tachyzoites) [1]) [µM] | IC50 (T. cruzi (amastigotes); [4]) [µM] | further results |
| --- | --- | --- | --- |
| CCCCCCCCC(F)(P(=O)(O)O)P(=O)(O)O [Compound 10] | 2.67 | – | – |
| CCCCCCCCCC(F)(P(=O)(O)O)P(=O)(O)O [Compound 11] | > 10.0 | – | – |
| CCCCCCNCC(P(=O)(O)O)P(=O)(O)O [Compound 12] | 9.4 | – | – |
| CCCCCCCNCC(P(=O)(O)O)P(=O)(O)O [Compound 13] | > 50.0 | – | – |
| CCCCCCCCCCCCNCC(P(=O)(O)O)P(=O)(O)O [Compound 14] | 6.23 | – | – |
| CCCCCCCCNCC(O)(P(=O)(O)O)P(=O)(O)O [Compound 15] | 2.0 | – | – |
| CCCCCCCSCC(P(=O)(O)O)P(=O)(O)O [Compound 16] | 0.97 | – | effect in combination with statins in in vivo assays [2]: strong synergistic effect |
| CCCCCCCCCCSCC(P(=O)(O)O)P(=O)(O)O [Compound 17] | 1.8 | – | – |
| CCCCCCCCCCS(=O)(=O)CC(P(=O)(O)O)P(=O)(O)O [Compound 18] | 0.11 | – | in vitro activity against T. gondii ED50 (T. gondii (tachyzoites) [1]; tachyzoites proliferation): 0.1 µM |
| CCCCCCCC[S+](C)CC(P(=O)(O)O)P(=O)(O)O.F[B-](F)(F)F (stereo not shown) [Compound 19] | 7.0 | – | – |
| CCCNC(P(=O)(O)O)P(=O)(O)O [Compound 21, 1-n-Propylaminomethyl-1,1-bisphosphonic acid] | – | – | IC50 (T. cruzi (amastigotes); read-out: T. cruzi cells ED50): > 10 µM |
| CCCCNC(P(=O)(O)O)P(=O)(O)O [Compound 22, 1-n-Butylaminomethyl-1,1-bisphosphonic acid] | – | – | IC50 (T. cruzi (amastigotes); read-out: T. cruzi cells ED50): > 10 µM |
| CCCCCNC(P(=O)(O)O)P(=O)(O)O [Compound 23, 1-n-Pentylaminomethyl-1,1-bisphosphonic acid] | – | > 10 | – |
| CCCCCCNC(P(=O)(O)O)P(=O)(O)O [Compound 24, 1-n-Hexylaminomethyl-1,1-bisphosphonic acid] | – | > 10 | – |
| CCCCCCCNC(P(=O)(O)O)P(=O)(O)O [Compound 25, 1-n-Heptylaminomethyl-1,1-bisphosphonic acid] | – | > 10 | – |
| CCCCCCCCNC(P(=O)(O)O)P(=O)(O)O [Compound 26, 1-n-Octylaminomethyl-1,1-bisphosphonic acid] | – | > 10 | – |
| CCCCCCCCCNC(P(=O)(O)O)P(=O)(O)O [Compound 27, 1-n-Nonylaminomethyl-1,1-bisphosphonic acid] | – | > 10 | – |
| CCCCCCCCCCNC(P(=O)(O)O)P(=O)(O)O [Compound 28, 1-n-Decylaminomethyl-1,1-bisphosphonic acid] | – | 5.3 | – |
| O=P(O)(O)C(NC1CCCC1)P(=O)(O)O [Compound 30, (Cyclopentylamino)methyl-1,1-bisphosphonic acid] | – | > 10 | – |
| O=P(O)(O)C(NC1CCCCC1)P(=O)(O)O [Compound 31, (Cyclohexylamino)methyl-1,1-bisphosphonic acid] | – | > 10 | – |
| O=P(O)(O)C(NC1CCCCCC1)P(=O)(O)O [Compound 32, (Cycloheptylamino)methyl-1,1-bisphosphonic acid] | – | > 10 | – |
| O=P(O)(O)C(N1CCCCC1)P(=O)(O)O [Compound 33, (Piperidin-1-yl)methyl-1,1-bisphosphonic acid] | – | > 10 | – |
| O=P(O)(O)C(CNC1CCCC1)P(=O)(O)O [Compound 47, 1-[(Cyclopentylamino)ethyl] 1,1-bisphosphonic acid] | – | > 10 | – |
| O=P(O)(O)C(CNC1CCCCCC1)P(=O)(O)O [Compound 48, 1-[(Cycloheptylamino)ethyl] 1,1-bisphosphonic acid] | – | > 10 | – |
| CC1CCC(NCC(P(=O)(O)O)P(=O)(O)O)CC1 (stereo not shown) [Compound 49, 1-[(4-methylcyclohexylamino)ethyl] 1,1-bisphosphonic acid] | – | > 10 | – |
| CCCCCCCCCCCS(=O)(=O)CC(P(=O)(O)O)P(=O)(O)O [Compound 56, 1-[(n-Undecylsulfonyl)ethyl]-1,1-biphosphonic acid] | – | – | IC50 (T. gondii (tachyzoites) [3]): 0.53 µM |
